In PubChem BioAssay (NCI):
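How tested: cells in 96-well plates exposed to compound for 48 hours at five concentrations. TGI denotes the concentration required for complete inhibition of growth.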

What was measured:
Test in all cases: growth of human tumour cells (NCI), 48 h
786-0 renal = tested on: 786-0 renal
A498 renal = tested on: A498 renal
A549 NSCLC = tested on: A549 NSCLC
ACHN renal = tested on: ACHN renal
CAKI-1 renal = tested on: CAKI-1 renal
CCRF-CEM leukemia = tested on: CCRF-CEM leukemia
COLO 205 colon = tested on: COLO 205 colon
DLD-1 colon = tested on: DLD-1 colon
DMS 114 small cell lung = tested on: DMS 114 small cell lung
DMS 273 small cell lung = tested on: DMS 273 small cell lung
EKVX NSCLC = tested on: EKVX NSCLC
HCC-2998 colon = tested on: HCC-2998 colon
HCT-116 colon = tested on: HCT-116 colon
HCT-15 colon = tested on: HCT-15 colon
HL-60(TB) leukemia = tested on: HL-60(TB) leukemia
HOP-18 NSCLC = tested on: HOP-18 NSCLC
HOP-62 NSCLC = tested on: HOP-62 NSCLC
HOP-92 NSCLC = tested on: HOP-92 NSCLC
HT29 colon = tested on: HT29 colon
IGROV1 ovarian = tested on: IGROV1 ovarian
K-562 leukemia = tested on: K-562 leukemia
KM12 colon = tested on: KM12 colon
KM20L2 colon = tested on: KM20L2 colon
LXFL 529 NSCLC = tested on: LXFL 529 NSCLC
M14 melanoma = tested on: M14 melanoma
M19-MEL melanoma = tested on: M19-MEL melanoma
MALME-3M melanoma = tested on: MALME-3M melanoma
MOLT-4 leukemia = tested on: MOLT-4 leukemia
NCI-H226 lung = tested on: NCI-H226 lung
NCI-H23 lung = tested on: NCI-H23 lung
NCI-H460 lung = tested on: NCI-H460 lung
OVCAR-3 ovarian = tested on: OVCAR-3 ovarian
OVCAR-4 ovarian = tested on: OVCAR-4 ovarian
OVCAR-5 ovarian = tested on: OVCAR-5 ovarian
OVCAR-8 ovarian = tested on: OVCAR-8 ovarian
RPMI-8226 leukemia = tested on: RPMI-8226 leukemia
RXF-631 renal = tested on: RXF-631 renal
SF-268 CNS = tested on: SF-268 CNS
SF-295 CNS = tested on: SF-295 CNS
SF-539 CNS = tested on: SF-539 CNS
SK-MEL-28 melanoma = tested on: SK-MEL-28 melanoma
SK-MEL-5 melanoma = tested on: SK-MEL-5 melanoma
SK-OV-3 ovarian = tested on: SK-OV-3 ovarian
SN12C renal = tested on: SN12C renal
SNB-19 CNS = tested on: SNB-19 CNS
SNB-75 CNS = tested on: SNB-75 CNS
SNB-78 CNS = tested on: SNB-78 CNS
SW-620 colon = tested on: SW-620 colon
TK-10 renal = tested on: TK-10 renal
U251 CNS = tested on: U251 CNS
UACC-257 melanoma = tested on: UACC-257 melanoma
UACC-62 melanoma = tested on: UACC-62 melanoma
UO-31 renal = tested on: UO-31 renal

Compound: Cc1cccc(Cl)c1NC(N)=S
- TGI (786-0 renal): 48.6 µM
- TGI (A498 renal): > 100 µM
- TGI (A549 NSCLC): > 100 µM
- TGI (ACHN renal): 82.5 µM
- TGI (CAKI-1 renal): > 100 µM
- TGI (CCRF-CEM leukemia): > 100 µM
- TGI (COLO 205 colon): > 100 µM
- TGI (DLD-1 colon): > 100 µM
- TGI (DMS 114 small cell lung): 82 µM
- TGI (DMS 273 small cell lung): > 100 µM
- TGI (EKVX NSCLC): > 100 µM
- TGI (HCC-2998 colon): > 100 µM
- TGI (HCT-116 colon): 35.9 µM
- TGI (HCT-15 colon): 37.1 µM
- TGI (HL-60(TB) leukemia): > 100 µM
- TGI (HOP-18 NSCLC): 98.6 µM
- TGI (HOP-62 NSCLC): > 100 µM
- TGI (HOP-92 NSCLC): > 100 µM
- TGI (HT29 colon): > 100 µM
- TGI (IGROV1 ovarian): > 100 µM
- TGI (K-562 leukemia): > 100 µM
- TGI (KM12 colon): > 100 µM
- TGI (KM20L2 colon): > 100 µM
- TGI (LXFL 529 NSCLC): > 100 µM
- TGI (M14 melanoma): > 100 µM
- TGI (M19-MEL melanoma): > 100 µM
- TGI (MALME-3M melanoma): > 100 µM
- TGI (MOLT-4 leukemia): > 100 µM
- TGI (NCI-H226 lung): > 100 µM
- TGI (NCI-H23 lung): > 100 µM
- TGI (NCI-H460 lung): > 100 µM
- TGI (OVCAR-3 ovarian): 78.6 µM
- TGI (OVCAR-4 ovarian): > 100 µM
- TGI (OVCAR-5 ovarian): > 100 µM
- TGI (OVCAR-8 ovarian): 79.8 µM
- TGI (RPMI-8226 leukemia): 58.8 µM
- TGI (RXF-631 renal): > 100 µM
- TGI (SF-268 CNS): > 100 µM
- TGI (SF-295 CNS): > 100 µM
- TGI (SF-539 CNS): > 100 µM
- TGI (SK-MEL-28 melanoma): > 100 µM
- TGI (SK-MEL-5 melanoma): > 100 µM
- TGI (SK-OV-3 ovarian): > 100 µM
- TGI (SN12C renal): > 100 µM
- TGI (SNB-19 CNS): > 100 µM
- TGI (SNB-75 CNS): > 100 µM
- TGI (SNB-78 CNS): > 100 µM
- TGI (SW-620 colon): 35.6 µM
- TGI (TK-10 renal): > 100 µM
- TGI (U251 CNS): 49.7 µM
- TGI (UACC-257 melanoma): > 100 µM
- TGI (UACC-62 melanoma): > 100 µM
- TGI (UO-31 renal): > 100 µM
